≈ marks a conversion by molar mass, not a printed value.
Legend:
[1] = test system: Colon 26 Advanced, Metastatic Tumor; assay: Murine Colon 26 advanced, metastatic tumor, increase in mean life span; assay type: in vivo, CD2F1 mice; conditions: days 5,9,13
Method: (§1) CD2F1 mice are injected i.p. with 5 x 10^5 tumor cells on Day 0 of the test. Drugs are administered i.p. on Days 5, 9, and 13 after the tumor implantation. Positive drug response is indicated by a more than 25% increase in the mean life span (% ILS), relative to placebo treated controls. Drugs are considered to be toxic when the mean life span of the drug treated animals is more than 15% shorter than placebo treated controls.

P388 Leukemia = assay: Murine P388 leukemia, increase in mean life span; assay type: in vivo, CD2F1 mice; conditions: days 1,5,9
Method: as §1, with “with 1” for “with 5”, “x 10^6” for “x 10^5”, “Days 1,” for “Days”, “5,” for “5, 9,”, “and 9” for “and 13”

A2780 S cells = assay: Two cell line test procedure, in vitro cytotoxicity (sulforhodamine B), A2780 S; assay type: cell-based; conditions: Homo sapiens, A2780S, 48 hours exposure
Method: (§2) A2780 S and A2780 DDP cells [Biochemical and Molecular Properties of Cisplatin-resistant A2780 Cells Grown in Folinic Acid; Y. Lu, J. Hnan, and K. Scanlon, J. Biol. Chem., 263, 4891-4894, 1988.] are grown in RPMI 1640 medium containing 5% fetal calf serum, 50 µg/ml streptomycin, 50 units/ml penicillin, 50 µg/ml gentamycin, 0.03% L-glutamine, 1 nM estradiol, 1 nM testosterone, 5 µg/ml insulin, 5 µg/ml transferrin, and 5 ng/ml selenous acid, at 37°C, in a humidified atmosphere, containing 5% CO2. Experiments are done in the same media.
(§3) Cells are plated at the concentration of 5 x 10^4/ml on Day 0 of the experiment. On Day one cells are fixed with trichloroacetic acid and 5 ten-fold dilutions of tested compounds are added, in duplicates, to the remaining cells. On Day 3 (48 hours exposure to drugs) all cells are fixed with trichloroacetic acid, stained with 0.4% sulforhodamine B, and absorbency is read at 520 nm. The IC50 (concentration causing 50% inhibition) are determined for each drug.

A2780 DDP cells = assay: Two cell line test procedure, in vitro cytotoxicity (sulforhodamine B), A2780 DDP; assay type: cell-based; conditions: Homo sapiens; A2780 DDP cells (cisplatin-resistant), 48 hours exposure
Method: as §2, §3

P388 = conditions: literature report; cited from earlier work

SMILES | % ILS ([1]; COLON 26, dose 100 mg/kg i.p.) | % ILS ([1]; COLON 26, dose 200 mg/kg i.p.) | % ILS ([1]; COLON 26, dose 300 mg/kg i.p.) | % ILS (P388 Leukemia; P388, dose 50 mg/kg i.p.) | % ILS (P388 Leukemia; P388, dose 100 mg/kg i.p.) | % ILS (P388 Leukemia; P388, dose 200 mg/kg i.p.) | IC50 (A2780 S cells) [µg/mL] | IC50 (A2780 DDP cells) [µg/mL] | other results
COc1cccc2c1C(=O)c1c(O)c3c(c(O)c1C2=O)C[C@@](O)(C(=O)CO)C[C@@H]3O[C@H]1C[C@H](N)[C@H](O)[C@H](C)O1 [Adriamycin, reference compound] | – | – | – | – | – | – | – | – | % ILS ([1]; COLON 26, dose 4 mg/kg i.p.): +70%
CN(C)CCNC(=O)c1cccn2c(=O)c3cc(-c4cccnc4)ccc3nc12 [Example 06, N-[2-(Dimethylamino)ethyl]-11-oxo-2-(3-pyridinyl)-11H-Pyrido-[2,1-b]quinazoline-6-carboxamide] | +9% | +15% | +21% | +16% | +22% | +47% | 0.9 (≈ 2.32 µM) | 5 (≈ 12.9 µM) | –
CN(C)CCNC(=O)c1cccn2c(=O)c3cc(-c4ccncc4)ccc3nc12 [Example 07, N-[2-(Dimethylamino)ethyl]-11-oxo-2-(4-pyridinyl)-11H-pyrido-[2,1-b]quinazoline-6-carboxamide] | -15% | -52% | -58% | +20% | +29% | +49% | 0.7 (≈ 1.81 µM) | 5.6 (≈ 14.5 µM) | –
O=C(NCCN1CCCC1)c1cccn2c(=O)c3cc(-c4ccncc4)ccc3nc12 [Example 08, 11-Oxo-2-(4-pyridinyl)-N-[2-(1-pyrrolidinyl)ethyl]-11H-pyrido-[2,1-b]quinazoline-6-carboxamide] | – | – | – | – | – | – | 0.8 (≈ 1.93 µM) | 3.7 (≈ 8.95 µM) | –
CN(C)CCNC(=O)c1cccn2c(=O)c3cc(-c4cnc5ccccc5c4)ccc3nc12 [Example 10, N-[2-(Dimethylamino)ethyl]-11-oxo-2-(3-quinolinyl)-11H-pyrido[2,1-b]quinazoline-6-carboxamide] | – | – | – | – | – | – | 4.5 (≈ 10.3 µM) | 5.3 (≈ 12.1 µM) | –
CN(C)CCNC(=O)c1cccn2c(=O)c3ccc(-c4cccnc4)cc3nc12 [Example 15, N-[2-(Dimethylamino)ethyl]-11-oxo-3-(3-pyridinyl)-11H-pyrido-[2,1-b]quinazoline-6-carboxamide] | +15% | +64% | -3% | +8% | +18% | +37% | 0.6 (≈ 1.55 µM) | 0.7 (≈ 1.81 µM) | –
CN(C)CCNC(=O)c1cccn2c(=O)c3ccc(-c4ccncc4)cc3nc12 [Example 16, N-[2-(Dimethylamino)ethyl]-11-oxo-3-(4-pyridinyl)-11H-pyrido-[2,1-b]quinazoline-6-carboxamide] | – | – | – | – | – | – | 7 (≈ 18.1 µM) | 8.6 (≈ 22.2 µM) | –
CN(C)CCNC(=O)c1cccn2c(=O)c3ccccc3nc12 [I, N-[2-(dimethylamino)ethyl]-11-oxo-11H-pyrido[2,1-b]quinalzoline-6-carboxamide] | – | – | – | – | – | – | – | – | activity in a P388 mouse model (P388): inactive
CC[C@]1(O)C[C@H]2CN(CCc3c([nH]c4ccccc34)[C@@](C(=O)OC)(c3cc4c(cc3OC)N(C=O)[C@H]3[C@@](O)(C(=O)OC)[C@H](OC(C)=O)[C@]5(CC)C=CCN6CC[C@]43[C@@H]65)C2)C1 [Vincristine, reference compound] | – | – | – | – | – | – | – | – | % ILS (P388 Leukemia; P388, dose 0.8 mg/kg i.p.): +114%
